What all share (assay): NCI anticancer screen, dose series, 48 h
In assay [1] the test system is ACHN renal.
The subject of assay [2] is DU-145 prostate.
For assay [3], the system named is IGROV1 ovarian.
The test system of assay [4] is LOX IMVI melanoma.
The subject of assay [5] is MDA-MB-435.
In assay [6] the test system is HCT-116 colon.
Assay [7] has as its system UO-31 renal.
Assay [8] concerns UACC-62 melanoma.
In assay [9] the test system is HL-60(TB) leukemia.
For assay [10], the system named is MOLT-4 leukemia.

Values joined by “and” are separate entries in the source; they are usually repeats but may differ in a detail not shown here. Equal entries are not always repeated.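 How tested: cells in 96-well plates exposed to compound for 48 hours at five concentrations. GI50: concentration for 50% inhibition of growth. The concentration for full growth arrest is given as TGI.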

Consider `CN(C)c1ccc(/C=C(\C#N)c2cc3ccccc3[nH]2)cc1`, for which the GI50 in assay [1] was 2.42 µM; in assay [2], 3.41 µM; in assay [3] it was 1.6 µM; in assay [4], 0.692 µM; in [5], 0.228 µM; in [6], 0.456 µM. The GI50 in assay [7] is 2.01 µM; in assay [8] it was 0.679 µM; in assay [9] it was 0.455 µM; in [10] it was 0.906 µM. The TGI in assay [1] was greater than 100 µM; in assay [2], 35.4 µM; in [3], greater than 100 µM; in assay [4] it was greater than 100 µM; in assay [5], 0.641 µM; in assay [6], greater than 100 µM. Besides, the TGI in assay [7], in assay [8], in assay [9] and in assay [10] was greater than 100 µM each time.
Turning to `COc1cccc2c1C(=O)c1c(O)c3c(c(O)c1C2=O)C[C@@](O)(C(=O)CO)CC3OC1CC(N)C(OC2CCCCO2)C(C)O1` (some centres undefined), the TGI is 0.029 µM in assay [1]; 0.0489 µM in [2]; 1 µM and 1.62 µM in assay [4]; 0.229 µM in [5]; 1.16 µM and 3.31 µM in assay [6]; 5.46 µM in [7]. Further, the TGI in assay [10] is 0.276 µM and 0.576 µM. Moreover, the GI50 in [3] was 0.0158 µM; in assay [4], 0.0184 µM; in assay [8], 0.0205 µM; in assay [9] it was less than 0.001 µM; in assay [10] it was less than 0.001 µM.
Regarding `CC1(C)C(N2CCOCC2)CS1(=O)=O` (centres undefined), the TGI in assay [1], in [2], in assay [3], in assay [4], in assay [5] and in [6] was greater than 10 µM throughout. In addition, the TGI in assay [7], in [8], in assay [9] and in [10] was greater than 10 µM in each case.
In the case of `O=C(Oc1ccccc1)N(c1ccccc1)c1ccccc1`, the GI50 is 28.8 µM in [1]; 42.9 µM in assay [2]; 38.1 µM in [3]; 19.9 µM in [4]; 24.4 µM in assay [5]; 18.6 µM in [6]. Besides, the GI50 was 15 µM in assay [7], 22.3 µM in [8], 28.2 µM in assay [9] and 28.3 µM in [10]. In addition, the TGI in assay [1] is greater than 100 µM; in assay [2] it was greater than 100 µM; in assay [3] it was greater than 100 µM; in assay [4], 78.6 µM; in assay [5], 75.9 µM; in [6], 76.8 µM. Besides, the TGI in assay [7] is greater than 100 µM; in assay [8], greater than 100 µM; in [9], 71.4 µM; in assay [10], greater than 100 µM.
Take `Cc1ccc(N(C=O)c2c([N+](=O)[O-])cc([N+](=O)[O-])c3c2=[N+]([O-])CN=3)cc1`: the TGI is 64 µM in [1]; 72.9 µM in assay [2]; greater than 100 µM in [3]; 90.3 µM in assay [4]; greater than 100 µM in assay [5]; 67.4 µM in assay [6]. The TGI in assay [7] is greater than 100 µM; in assay [8], 29.8 µM; in assay [9], 61.3 µM; in assay [10], 80.4 µM.
Regarding `O=C(O)CCC(c1ccccc1)(c1ccccc1)c1ccccc1`, the TGI in assay [1], in assay [2], in [3], in [4], in [5] and in assay [6] was greater than 100 µM each time. The TGI was greater than 100 µM in assay [7], greater than 100 µM in assay [8], greater than 90.6 µM in assay [9] and greater than 92.2 µM in [10]. Further, the GI50 in assay [3] is 71.2 µM; in assay [6] it was 43.6 µM.
For the compound `CCc1nc(C)cn1C(=O)OCc1nc2nc(Cl)nc(N3CCOCC3)c2[nH]1`, the GI50 in assay [1] was 0.854 µM; in assay [2] it was 1.22 µM; in assay [3], 0.501 µM; in [4], 1.02 µM; in [5] it was 1.36 µM; in assay [6], 0.364 µM. Further, the GI50 in [7] was 1.01 µM; in assay [8] it was 1.44 µM; in [9], 0.451 µM; in [10] it was 1.01 µM. Also, the TGI was determined as 2.09 µM in [1]; 2.52 µM in assay [2]; 1.86 µM in assay [3]; 2.33 µM in [4]; 2.71 µM in [5]; 2.3 µM in assay [6]. Besides, the TGI in [7] is 2.18 µM; in assay [8], 2.75 µM; in assay [9], 3.15 µM; in assay [10], 3.79 µM.
